Laboratory results as given in patent EP3495372B1 (priority 2017, dated 2019).
≈ marks a conversion by molar mass, not a printed value. Marks after values point to notes of the source that are not given here.

Tests used:
[1] = test system: differentiated SH-SY5Y human neuroblastoma cells; assay: LDH assay, neuroprotective effects against Aβ1-42 cytotoxicity; assay type: cell-based; conditions: with 20 µM Aβ1-42, 24 h
Protocol: Cell cultures and differentiation: SH-SY5Y cell line were growth in DMEM:F12 (1:1) media including 10% FBS and 1% penicillin/streptomycin at 37 °C and 5% CO2 until cells reach confluence. Then, cells harvested via using trypsin/EDTA solution and transferred to 48 well plates. For differentiation, media were changed to supplemented media with 10 µg/mL retinoic acid and incubated for 5 days. Finally, media were changed into serum free media supplementing with both 10 µM retinoic acid and 25 ng/mL BDNF.
(§1) Cytotechnol. 2015; 67:299-309.
Control cells (n = 6) were cultured under normal conditions. 1% Triton X, ascorbic acid (10 µM) and hydrogen peroxide (H2O2, 25 µM) were used as positive controls for cell viability, TAC and TOS analysis, respectively.
The cultures without BLA, MEM, or LA were studied as negative control group. 1% Triton-X was added to the culture media to provide negative control group.

[2] = biological target: T1, acetylcholinesterase (AChE) (Homo sapiens, UniProt P22303); assay: AChE activity in cellular model of Alzheimer's disease; assay type: cell-based; conditions: with 20 µM Aβ1-42, 24 h
T1 construct: endogenous in cells
Protocol: Determination of AChE activity: the activity of AChE within the cellular Alzheimer Disease's model was measured by the Acetylcholinesterase Assay Kit (Colorimetric) from Abcam^(R) (Cambridge, MA, USA) according to the manufacturer's recommended protocol.
AChE activity was evaluated in differentiated SH-SY5Y cells treated with BLA, LA, MEM (25 and 50 µM) or media alone for 24 h.

human neuron-like cells = assay: Apoptosis-Necrosis assay (Annexin V-FITC/PI flow cytometry); assay type: cell-based; conditions: concentration not given
Protocol: Apoptosis-Necrosis assay: the frequencies of viable, apoptotic and necrotic cells were detected with the Annexin V-FITC apoptosis detection Kit I (BD Pharmingen, USA). Briefly, 5 x 10^4 cells were collected by centrifugation and cells resuspended in 500 µL of 1X binding buffer. Then, 5 µL of Annexin V-FITC and 5 µl of propidium iodide (PI 50 µg/ml) were added to the cultures and incubated 5 min in the dark. After that, cells fixed with 4% paraformaldehyde in phosphate buffered saline at 4 °C for 30 min. Cells from each well were stained according to the manufacturer's instructions and analyzed using a flow cytometer (CyFlow Cube 6, Partec, Germany). A computer system was used for data acquisition and analysis. Four different populations of cells are detected with the Annexin V-FITC kit: viable cells that are annexin negative and PI negative and express no fluorescence, early apoptotic cells that are annexin positive and PI negative and that express green fluorescence, late apoptotic/necrotic cells that are annexin positive and PI positive and that express green and orange fluorescence, necrotic cells that are annexin negative and PI positive and that express orange fluorescence (Majstorovic I, Vucevic D, Pavlovic B, Vasilijic S, Colic M. An anti-DEC-205 monoclonal antibody stimulates binding of thymocytes to rat thymic dendritic cells and promotes apoptosis of thymocytes. Cent Eur J Immunol. 2014; 39:411-418) .
BLA was considered as more able to protect the human neuron-like cells from Aβ1-42-induced necrosis and late apoptosis than LA or MEM.

[3] = test system: platelet aggregation induced by collagen; assay: Optical aggregometry in platelet-rich plasma, aggregation induced by collagen; assay type: cell-based, human; conditions: Collagen (10 µg/mL)
Protocol: Blood Collection and Preparation of Platelet-Rich Plasma: blood was collected from healthy and non-smoking volunteers (all volunteers have signed informed consent) into a polypropylene tube containing 0.105 M buffered sodium citrate. None of the donors had received any medication known to affect platelet function for at least 10 days before blood collection. Platelet-rich plasma (PRP) was collected by the centrifugation of whole blood at 150 g for 15 min at room temperature. Subsequently, platelet-poor plasma (PPP) was collected by the centrifugation at 2000 g for 20 min at room temperature. The platelet count was adjusted to 2x10^8 cells /ml with PPP.
Incubation of PRP with BLA and LA: PRP was incubated with BLA and LA (25, 50, and 100 µM) for 15 minutes at 37 °C. PRP without any compound was used as a control.
Optical Aggregometry in Platelet-Rich Plasma: the measurement of platelet aggregation in PRP was performed using four-channel aggregometer (APACT 4004; LABiTec, Ahrensburg, Germany). After the incubation of PRP with three different compounds, platelet aggregation was stimulated by ADP (20 µM) and Collagen (10 µg/mL) and percentage of aggregation was monitored for 10 minutes. The percentage of aggregation, slope and shape change parameters were monitored for 10 minutes. Assay was started 1 hour after blood was collected and finished within 3 hours (Hao HZ, He AD, Wang DC, Yin Z, Zhou YJ, Liu G, Liang ML, Da XW, Yao GQ, Xie W, Xiang JZ, Ming ZY. Antiplatelet activity of loureirin A by attenuating Akt phosphorylation: In vitro studies. Eur. J. Pharmacol. 2015; 746:63-9).

[4] = test system: SHSY-5Y human neuroblastoma cell line; assay: Antitumor activity, MTT and LDH assays; assay type: cell-based; conditions: dose-dependent
Protocol: as §1
Antitumor activity of BLA and MEM was tested on SHSY-5Y human neuroblastoma cell line using MTT and LDH assays. Cells were grown to near-confluency before treatment. Growth of the cell line was inhibited by both drug application in a dose-dependent manner.

[5] = test system: Staphylococcus aureus ATCC 25923; assay: Antimicrobial activity; assay type: cell-based; conditions: ATCC25923, S. aureus ATCC 25923
[6] = test system: Enterococcus faecalis ATCC 29212; assay: Antimicrobial activity; assay type: cell-based; conditions: ATCC29212, E. faecalis ATCC 29212
[7] = test system: Escherichia coli ATCC 25922; assay: Antimicrobial activity; assay type: cell-based; conditions: ATCC25922, E. coli ATCC 25922
[8] = test system: Pseudomonas aeruginosa ATCC 27853; assay: Antimicrobial activity; assay type: cell-based; conditions: ATCC27853, P. aeruginosa ATCC 27853
[9] = test system: Candida albicans ATCC 90028; assay: Antimicrobial activity; assay type: cell-based; conditions: ATCC90028, C. albicans ATCC 90028
[10] = test system: peripheral human whole blood (PHWB) cells; assay: Cytotoxicity assay (MTT and LDH) on blood cells; conditions: 0.1 to 100 µM, 24 h, MTT and LDH assays
Protocol: LDH assay: For LDH assay application, LDH cytotoxicity assay kit (Cayman Chemical Company®, Ann Arbor, MI, USA) was used according to the manufacturer's recommendations. The cells were transferred to 48-well plates and different concentrations of drugs were applied for 24 h. After that, 100 µL supernatant and 100 µL of reaction mixture were transferred to a fresh 48-well plate and incubated for 30 min at room temperature. Finally, the absorbance of the cultures was analyzed at 490 nm using a microplate reader as reported by Turkez H. Togar B, Di Stefano A, Taspinar N, Sozio P. Protective effects of cyclosativene on H2O2-induced injury in cultered rat primary cerebral cortx cells. […]
MTT assay: according to the manufacturer's instructions (Cayman Chemical Company®, Ann Arbor, MI, USA), 3-(4,5-Dimethylthiazol-2-yl)-2,5-diphenyltetrazolium bromide (MTT) solution was applied to cell cultures. As summary, MTT was added and incubated in the cell cultures for 3 h and after incubation dimethyl sulfoxide (DMSO) was used to solve formazan crystals, and a plate reader was used to analyse cultures at 570 nm wavelength (Togar B, Turkez H, Hacimuftuoglu A, Tatar A, Geyikoglu F. Guaiazulene biochemical activity and cytotoxic and genotoxic effects on rat neuron and N2a neuroblastom cells. J. Intercult. Ethnopharmacol. 2015; 4:29-33). […]

T1 sequence (P22303 32-614): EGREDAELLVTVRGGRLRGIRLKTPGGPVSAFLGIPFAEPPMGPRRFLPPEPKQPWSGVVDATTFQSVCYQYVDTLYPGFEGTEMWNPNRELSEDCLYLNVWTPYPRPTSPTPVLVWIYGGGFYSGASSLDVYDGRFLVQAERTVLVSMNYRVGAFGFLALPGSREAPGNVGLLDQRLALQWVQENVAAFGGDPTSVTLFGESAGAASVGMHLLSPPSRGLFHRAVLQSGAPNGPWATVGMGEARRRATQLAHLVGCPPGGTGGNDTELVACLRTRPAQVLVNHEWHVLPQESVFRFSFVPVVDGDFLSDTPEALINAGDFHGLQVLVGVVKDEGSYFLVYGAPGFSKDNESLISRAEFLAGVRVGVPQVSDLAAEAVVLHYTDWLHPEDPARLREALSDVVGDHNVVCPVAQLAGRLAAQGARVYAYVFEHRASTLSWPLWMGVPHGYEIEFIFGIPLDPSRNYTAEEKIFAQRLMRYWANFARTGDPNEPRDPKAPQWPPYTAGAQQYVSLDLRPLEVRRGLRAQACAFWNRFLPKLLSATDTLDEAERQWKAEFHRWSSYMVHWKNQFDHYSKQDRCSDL

Compound	increase in the cell viability (inhibited LDH release) ([1]; 25 µM) [%]	increase in the cell viability (inhibited LDH release) ([1]; 50 µM) [%]	increase in the cell viability (inhibited LDH release) ([1]; 100 µM) [%]	decreased the necrotic cell percentage by Aβ1-42 (human neuron-like cells) [%]	Max. Aggregation (%) ([3]; 25 µM)	Shape change (%) ([3]; 25 µM)	Slope (%) ([3]; 25 µM)	Max. Aggregation (%) ([3]; 50 µM)	Shape change (%) ([3]; 50 µM)	Slope (%) ([3]; 50 µM)	Max. Aggregation (%) ([3]; 100 µM)	Shape change (%) ([3]; 100 µM)	Slope (%) ([3]; 100 µM)	also measured
CC1(C)C2CC3OB(CNC(=O)CCCC[C@H]4CCSS4)O[C@]3(C)C1C2 (stereo partly drawn) [BLA, 5-((S)-1,2-dithiolan-3-yl)-N-(((3aR)-3a,5,5-trimethylhexahydro-4,6-methanobenzo[d][1,3,2]dioxaborol-2-yl)methyl)pentanamide]	62.91	67.37	70.65	68.38	45.7* %	24.7* %	41.4* %	31.8* %	10.2* %	30.8* %	7.9* %	5.6* %	25.5* %	reduced Aβ-induced AChE activity ([2]; 25 µM): 18.77%; reduced Aβ-induced AChE activity ([2]; 50 µM): 22.96%; antitumor effects (growth inhibition) [4]: moderate antitumor effects; MIC [5]: 256 µg/mL (≈ 644 µM); MIC [6]: 256 µg/mL (≈ 644 µM); MIC [7]: 128 µg/mL (≈ 322 µM); MIC [8]: 256 µg/mL (≈ 644 µM); MIC [9]: 128 µg/mL (≈ 322 µM); changes in cell viability [10]: did not show any significant changes in cell viability
O=C(O)CCCCC1CCSS1 (centres unmarked) [LA, 1,2-dithiolane-3-pentanoic acid]	53.05	58.68	59.86	61.67	47.9* %	27.9* %	43.6* %	41.6* %	23.4* %	37.2* %	35.8* %	20.8* %	31,4* %	–
